Experimental data published in PubChem BioAssay (NCI).
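Compound exposure: 48 hours, 5 concentrations, 96-well plates. Here, GI50 denotes the concentration required for 50% inhibition of growth. TGI: concentration producing complete growth inhibition.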

Assays:
Assay in all cases: NCI anticancer screen, dose series, 48 h
[1] = tested on: 786-0 renal
[2] = tested on: A498 renal
[3] = tested on: A549 NSCLC
[4] = tested on: ACHN renal
[5] = tested on: BT-549 breast
[6] = tested on: CAKI-1 renal
[7] = tested on: CCRF-CEM leukemia
[8] = tested on: COLO 205 colon
[9] = tested on: DU-145 prostate
[10] = tested on: EKVX NSCLC
[11] = tested on: HCC-2998 colon
[12] = tested on: HCT-116 colon
[13] = tested on: HCT-15 colon
[14] = tested on: HL-60(TB) leukemia
[15] = tested on: HOP-62 NSCLC
[16] = tested on: HOP-92 NSCLC
[17] = tested on: HS 578T breast
[18] = tested on: HT29 colon
[19] = tested on: IGROV1 ovarian
[20] = tested on: K-562 leukemia
[21] = tested on: KM12 colon
[22] = tested on: LOX IMVI melanoma
[23] = tested on: M14 melanoma
[24] = tested on: MALME-3M melanoma
[25] = tested on: MDA-MB-231 breast
[26] = tested on: MDA-MB-435
[27] = tested on: MOLT-4 leukemia
[28] = tested on: NCI-H226 lung
[29] = tested on: NCI-H23 lung
[30] = tested on: NCI-H460 lung
[31] = tested on: NCI-H522 lung
[32] = tested on: NCI/ADR-RES ovarian
[33] = tested on: OVCAR-3 ovarian
[34] = tested on: OVCAR-4 ovarian
[35] = tested on: OVCAR-5 ovarian
[36] = tested on: OVCAR-8 ovarian
[37] = tested on: PC-3 prostate
[38] = tested on: RPMI-8226 leukemia
[39] = tested on: RXF 393 renal
[40] = tested on: SF-268 CNS
[41] = tested on: SF-295 CNS
[42] = tested on: SF-539 CNS
[43] = tested on: SK-MEL-2 melanoma
[44] = tested on: SK-MEL-28 melanoma
[45] = tested on: SK-MEL-5 melanoma
[46] = tested on: SK-OV-3 ovarian
[47] = tested on: SN12C renal
[48] = tested on: SNB-75 CNS
[49] = tested on: SR leukemia
[50] = tested on: SW-620 colon
[51] = tested on: U251 CNS
[52] = tested on: UACC-257 melanoma
[53] = tested on: UACC-62 melanoma
[54] = tested on: UO-31 renal

For `COc1cccc(/C(C#N)=C/c2nc3c(N4CCOCC4)nc(Cl)nc3n2C)c1`, the GI50 [1] was 1590 nM, the TGI [1] was 3050 nM and the GI50 [2] was 1490 nM. The TGI [2] was 2910 nM, the GI50 [3] was 1570 nM and the TGI [3] was 4230 nM. It also gave a GI50 [4] of 625 nM, a TGI [4] of 1890 nM and a GI50 [5] of 631 nM. The TGI [5] was 2040 nM, the GI50 [6] was 621 nM and the TGI [6] was 1990 nM. The GI50 [7] was 318 nM, the TGI [7] was 934 nM and the GI50 [8] was 1330 nM. The TGI [8] was 3090 nM, the GI50 [9] was 1290 nM and the TGI [9] was 2580 nM. For the same compound, the GI50 [10] was 1440 nM, the TGI [10] was 2840 nM and the GI50 [11] was 1690 nM. The TGI [11] was 3240 nM, the GI50 [12] was 171 nM and the TGI [12] was 433 nM. It also gave a GI50 [13] of 312 nM, a TGI [13] of 1300 nM and a GI50 [14] of 1460 nM. For the same compound, the TGI [14] was 3960 nM, the GI50 [15] was 1600 nM and the TGI [15] was 3640 nM. It also gave a GI50 [16] of 453 nM, a TGI [16] of 2210 nM and a GI50 [17] of 1590 nM. For the same compound, the TGI [17] was 5880 nM, the GI50 [18] was 351 nM and the TGI [18] was 1360 nM. For the same compound, the GI50 [19] was 1200 nM, the TGI [19] was 2490 nM and the GI50 [20] was 447 nM. For the same compound, the TGI [20] was 10300 nM, the GI50 [21] was 1770 nM and the TGI [21] was 3530 nM. The GI50 [22] was 1010 nM, the TGI [22] was 2250 nM and the GI50 [23] was 1060 nM. It also gave a TGI [23] of 2380 nM, a GI50 [24] of 1570 nM and a TGI [24] of 2970 nM. It also gave a GI50 [25] of 1380 nM, a TGI [25] of 2820 nM and a GI50 [26] of 1250 nM. The TGI [26] was 2610 nM, the GI50 [27] was 1270 nM and the TGI [27] was 4790 nM. For the same compound, the GI50 [28] was 1560 nM, the TGI [28] was 3350 nM and the GI50 [29] was 1520 nM. For the same compound, the TGI [29] was 3190 nM, the GI50 [30] was 1710 nM and the TGI [30] was 3650 nM. For the same compound, the GI50 [31] was 567 nM, the TGI [31] was 2200 nM and the GI50 [32] was 2310 nM. It also gave a TGI [32] of 9310 nM, a GI50 [33] of 611 nM and a TGI [33] of 1920 nM. For the same compound, the GI50 [34] was 1230 nM, the TGI [34] was 2590 nM and the GI50 [35] was 1550 nM. It also gave a TGI [35] of 3570 nM, a GI50 [36] of 1010 nM and a TGI [36] of 3070 nM. It also gave a GI50 [37] of 1060 nM, a TGI [37] of 2980 nM and a GI50 [38] of 376 nM. It also gave a TGI [38] of 1870 nM, a GI50 [39] of 1020 nM and a TGI [39] of 2230 nM. The GI50 [40] was 1570 nM, the TGI [40] was 3170 nM and the GI50 [41] was 2470 nM. It also gave a TGI [41] of 7880 nM, a GI50 [42] of 1440 nM and a TGI [42] of 2790 nM. The GI50 [43] was 1400 nM, the TGI [43] was 2810 nM and the GI50 [44] was 1610 nM. It also gave a TGI [44] of 3100 nM, a GI50 [45] of 1730 nM and a TGI [45] of 3140 nM. It also gave a GI50 [46] of 5420 nM, a TGI [46] of 18300 nM and a GI50 [47] of 1100 nM. The TGI [47] was 2450 nM, the GI50 [48] was 305 nM and the TGI [48] was 1790 nM. For the same compound, the GI50 [49] was 355 nM, the TGI [49] was 2440 nM and the GI50 [50] was 429 nM. The TGI [50] was 1700 nM, the GI50 [51] was 1260 nM and the TGI [51] was 2660 nM. For the same compound, the GI50 [52] was 1410 nM, the TGI [52] was 2900 nM and the GI50 [53] was 1200 nM. The TGI [53] was 2470 nM, the GI50 [54] was 480 nM and the TGI [54] was 1920 nM.
